“Also recorded” adds a separate entry of the source. Where no end group is shown, it is not given here. Where only a bound is given, the exact number is not on record here.

A short description of series [1]: In vivo perfusion of peptides through rat jejunum. Conditions: 15-20 cm jejunum segment, residence time 20 min. On the procedure:
FIG. 5. In vivo brush border membrane digestion of peptides.
In Vivo Endopeptidase Activity. An adult (female or male) rat was anesthetized and maintained at 36-37° C. during the entire surgical procedure. The peritoneal cavity was opened, and a small incision was made at the beginning and the end of a 15-20 cm jejunum segment. Polyethylene catheters were inserted and secured into the two ends. The input catheter was connected with a pump-driven syringe filled with a solution. The jejunum segment was perfused initially with PBS buffer to remove any residual debris at a flow rate of 0.4 ml/min. Purified peptide solutions (peptide concentration ranges from 25-100 μM) were then perfused at 0.4 ml/min through the jejunum segment with a 10-40 min residence time. In the case of a co-perfusion, the input catheter is connected with two simultaneous syringes, one with a peptide solution and the other with the prolyl endopeptidase solution (concentration ranges from 50-500 μU/μl). Fluid from the output catheter was collected into small centrifuge tubes in dry ice for subsequent analysis. The collected digestive products were analyzed by HPLC on a C18 column.

In series [2] the test system is rat brush border membrane (BBM) peptidases. The format is in vitro ADME. As to conditions: kidney or brush border membranes. On the procedure: To investigate the digestion of gluten, liquid chromatography coupled mass spectroscopy analysis (LC-MS-MS) was utilized to investigate the pathways and associated kinetics of hydrolysis of immunodominant gliadin peptides treated with rat BBM preparations. Because the rodent is an excellent small animal model for human intestinal structure and function, rat BBM was chosen as a suitable model system for these studies.
BBM fractions were prepared from rat small intestinal mucosa as described in Ahnen et al. (1982) J. Biol. Chem. 257, 12129-35. […] No proline aminopeptidase (EC 3.4.11.5) or prolyl endopeptidase activity (PEP, EC 3.4.21.26) activity was detectable (<5 μU/μg). Alkaline phosphatase and sucrase were used as control BBM enzymes with activities of 66 μU/μg and 350 μU/μg, respectively.
BBM fractions were partially purified from the small intestinal mucosa of adult female rats maintained on an ad libitum diet of wheat-based standard rodent chow. Total protein content was determined by a modified method of Lowry with BSA as a standard. Alkaline phosphatase activity was determined with nitrophenyl phosphate. Sucrase activity was measured using a coupled glucose assay. […] PEP activity was determined continuously with 0.4 mM Z-Gly-Pro-pNA in PBS:H2O:dioxane (8:1.2:0.8) at 30° C. One unit is the consumption of 1 μmol substrate per minute.
Proteolysis with the BBM preparation was investigated using the peptide (SEQ ID NO:1) […], a product of chymotryptic digestion of α-9 gliadin (Arentz-Hansen et al. (2000) J. Exp. Med. 191, 603-12). […] It was subjected to BBM digestion, followed by LC-MS-MS analysis. A standard 50 μl digestion mixture contained 100 μM of synthetic peptide, 10 μM tryptophan and Cbz-tryptophan as internal standards, and resuspended BBM preparations with a final protein content of 27 ng/μl and exogenous proteins, as indicated, in phosphate buffered saline. After incubation at 37° C. for the indicated time, the enzymes were inactivated by heating to 95° C. for 3 minutes. The reaction mixtures were analyzed by LC-MS (SpectraSystem, ThermoFinnigan) using a C18 reversed phase column (Vydac 218TP5215, 2.1×150 mm) with water:acetonitrile:formic acid (0.1%):trifluoroacetic acid (0.025%) as the mobile phase (flow: 0.2 ml/min) and a gradient of 10% acetonitrile for 3 minutes, 10-20% for 3 minutes, 20-25% for 21 minutes followed by a 95% wash. Peptide fragments in the mass range of m/z=300-2000 were detected by electrospray ionization mass spectroscopy using a LCQ ion trap and their identities were confirmed by MSMS fragmentation patterns.
BBM fractions were prepared from rat small intestinal mucosa.

Series [3] concerns gastric and pancreatic proteases. Description: Gastric and pancreatic protease digestion of recombinant α2-gliadin. Format: in vitro ADME. Conditions: extended reaction times. An excerpt:
[…]. […] No long intermediate is observed to accumulate.

Series [4] concerns human brush border membrane (BBM). Format: in vitro ADME. As to conditions: kidney or brush border membranes, 100 μM. The text has this:
(SEQ ID NO:12) […]

For series [5], the system named is carboxypeptidase A (C-0261, Sigma) and/or leucine aminopeptidase (L-5006, Sigma). Kind of series: 10 μg/ml carboxypeptidase A and/or 5.9 μg/ml leucine aminopeptidase. As to conditions: 37° C., up to 160 min.
Series [6] relates to prolyl endopeptidase (PEP, specific activity 28 μU/pg) from Flavobacterium meningosepticum (US Biological, MA). Description: 27 ng/μl brush border membranes with exogenous prolyl endopeptidase from Flavobacterium meningosepticum. Conditions: rat, up to one hour.
The subject of series [7] is DPP IV from Aspergillus fumigatus. Kind of series: rat BBM with exogenous DPP IV from Aspergillus fumigatus (0.28 μU DPP IV/ng BBM protein). Conditions: 37° C., up to four hours.
A short description of series [8]: resuspended rat brush border membrane (BBM) preparations in phosphate buffered saline. As to conditions: 37° C.
The subject of series [9] is rabbit lung DCP (Cortex Biochemicals, CA). Description: BBM with exogenous rabbit lung DCP in phosphate buffered saline:Tris buffered saline=9:1. Conditions: rat, up to overnight.
Another series concerns trypsin. Description: trypsin.
Series [10] is described as follows: BBM with captopril in phosphate buffered saline:Tris buffered saline=9:1. As to conditions: rat, up to overnight.
The nature of series [11]: rat brush border membrane (BBM) protein preparations, 27 ng/μl, in phosphate buffered saline. Conditions: 37° C, up to overnight.
A further series relates to chymotrypsin. Description: chymotrypsin.
For a further series, the system named is elastase. Kind of series: elastase at a high (non-physiological) concentration of 100 ng/μl.
In the next series the target is T1, EPB2 (Hordeum vulgare, UniProt P25250).
T1 construct: made in house; host or cells: E. coli BL21, plasmid pMTB1 (pET28b), inclusion bodies solubilised in 7 M urea
Description: Inhibition of EPB2 α2-gliadin digestion. Format: biochemical, barley (Hordeum vulgare subsp. vulgare). An excerpt:
The pH optimum of proEPB2 activation and α2-gliadin digestion is 2.4-3.5, which can therefore provide a treatment for Celiac Sprue consisting of oral administration of proEPB2.

T1 sequence (P25250 134-373): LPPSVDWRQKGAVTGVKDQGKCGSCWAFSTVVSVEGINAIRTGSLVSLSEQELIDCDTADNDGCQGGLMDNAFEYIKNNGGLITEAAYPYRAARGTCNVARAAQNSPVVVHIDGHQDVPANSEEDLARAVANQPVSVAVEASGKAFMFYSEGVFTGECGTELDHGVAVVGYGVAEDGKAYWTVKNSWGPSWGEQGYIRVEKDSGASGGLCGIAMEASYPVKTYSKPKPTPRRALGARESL

Take “LQLQPFPQPQLPYPQPQLPYPQPQLPYPQPQPF [33-mer]”: the “stability in the perfusion experiment” value in series [1] is on record as “most of the 33-mer gliadin peptide remained intact”. The half-life of digestion in series [2] is reported as over 20 h. The “stability toward gastric and pancreatic proteases” value in series [3] is “remained intact despite prolonged exposure to proteases”. The “Amount of Peptides Digested after 15 hours” value in series [4] is given as under 20%.
Take QLQPFPQPQLPY: the fragment found result in [5] is “QLQPFPQPQLP; also recorded: QPFPQPQLP”; in series [7] it was “QLQPFPQPQLP”. Further, in series [6], the cleaved bond result was “P-Q, major”.
PQPQLPYPQPQLPY: the cleaved bond result in [8] is on record as “P-Y, first_seen”; with elastase, “Q-L”. Besides, the fragment found entry in series [9], in series [5] and in [10] was “PQPQLPYPQPQLP” each time. Further, the not cleaved entry in the series with trypsin is “No proteolysis was detected”; in series [11], “no observed N-terminal processing”; in the series with chymotrypsin, “No proteolysis was detected”.
For the molecule `CC(=O)N[C@@H](CC(C)C)C(=O)N[C@@H](CC(C)C)C(=O)N[C@H](C=O)CCCNC(=N)N` [leupeptin], the “effect on α2-gliadin digestion by EPB2” value at EPB2 is on record as “inhibits this activity”.
